In the NIST ThermoML archive (doi:10.1016/j.tca.2013.11.010):

Legend:
[1] = for surface tension liquid-gas: Drop volume; for viscosity / speed of sound / mass density: 101.33 kPa; for viscosity / speed of sound / mass density / vapor or sublimation pressure: Liquid; for viscosity: Capillary tube (Ostwald / Ubbelohde) method; for speed of sound: Sing-around technique in a fixed-path interferometer; for mass density: Vibrating tube method; for vapor or sublimation pressure: Ebulliometric method (Recirculating still)
[2] = refractive index (Na D-line) (dimensionless); settings: 101.33 kPa, Liquid, Standard Abbe refractometry
[3] = relative permittivity at various frequencies (dimensionless); settings: 101.3 kPa, Liquid, Frequency=2 MHz, Parallel plate capacitor

COC(=O)C(C)O (stereo unspecified) [methyl 2-hydroxypropanoate]
Settings	mass density, [1] [kg/m3]	refractive index, [2]	relative permittivity, [3]	speed of sound, [1] [m/s]	surface tension liquid-gas, [1] [mN/m]	vapor or sublimation pressure, [1] [kPa]	viscosity, [1] [mPa·s]
278.15 K	1109.61	–	18.379	1416.4	35.05	–	5.21
280.65 K	1106.86	–	18.095	1407.1	34.8	–	4.706
283.15 K	1104.11	1.41831	17.817	1397.6	34.53	–	4.281
285.65 K	1101.34	1.41722	17.634	1387.9	34.25	–	3.916
288.15 K	1098.57	1.41613	17.353	1378.2	34.04	–	3.588
290.65 K	1095.79	1.41502	17.06	1368.2	33.73	–	3.299
293.15 K	1093.01	1.41392	16.779	1358.4	33.47	–	3.043
295.65 K	1090.23	1.41281	16.493	1348.6	33.14	–	2.819
298.15 K	1087.43	1.41171	16.21	1338.8	32.9	–	2.618
300.65 K	1084.64	1.41061	15.923	1329.2	32.6	–	2.438
303.15 K	1081.83	1.40949	15.647	1319.5	32.25	0.692	2.277
305.65 K	1079.02	1.40837	15.412	1309.9	31.95	–	2.132
308.15 K	1076.2	1.40725	15.093	1300.4	31.58	0.967	2
310.65 K	1073.38	1.40614	14.861	1290.9	31.23	–	1.881
313.15 K	1070.55	1.40502	14.598	1281.4	30.87	1.333	1.772
315.65 K	1067.71	1.40386	14.355	1271.9	30.63	–	1.672
318.15 K	1064.86	1.40276	14.127	1262.4	30.34	1.821	1.58
320.65 K	1062.01	1.40164	13.9	1253	30.08	–	1.499
323.15 K	1059.15	1.40051	13.666	1243.5	29.71	2.399	1.425
325.65 K	1056.28	1.39937	13.359	1234.1	29.38	–	1.345
328.15 K	1053.4	1.39821	13.113	1224.6	29.03	3.173	1.29
330.65 K	1050.52	1.3971	12.879	1215.2	28.83	–	1.231
333.15 K	1047.63	1.39596	12.631	1205.7	28.52	4.139	1.175
335.65 K	1044.73	1.39479	12.319	1196.3	28.22	–	1.136
338.15 K	1041.83	1.39365	12.012	1186.9	27.92	5.319	1.075
343.15 K	–	–	–	–	–	6.889	–
348.15 K	–	–	–	–	–	8.652	–
353.15 K	–	–	–	–	–	10.81	–
358.15 K	–	–	–	–	–	13.49	–
363.15 K	–	–	–	–	–	16.6	–
368.15 K	–	–	–	–	–	20.3	–
373.15 K	–	–	–	–	–	24.7	–
378.15 K	–	–	–	–	–	29.68	–
383.15 K	–	–	–	–	–	35.5	–
388.15 K	–	–	–	–	–	42.28	–
393.15 K	–	–	–	–	–	50	–
398.15 K	–	–	–	–	–	58.68	–
403.15 K	–	–	–	–	–	68.64	–
408.15 K	–	–	–	–	–	79.85	–
413.15 K	–	–	–	–	–	92.5	–
